Measured values as given in patent US4388237A, “6(1-Piperazinyl), piperidino and (1(homopiperazinyl)11-cyanomethylene morphanthridines” (BASF Aktiengesellschaft, priority 1979, dated 1983).
“Also recorded” adds a separate entry of the source. Counter-ions that a name gives are not always drawn.

Assays:
Assay type in all cases: in vivo
female NMRI mice [1] = test: Sedative effect (orientation hypermotility); conditions: for Sedative effect R.A. (relative activity): relative to Clozapin (1.00); for Sedative effect (in words): discussion of Table 1
Protocol: The substances are administered orally to groups of 4×3 or 8×3 female NMRI mice. The orientation hypermotility induced by a new environment is determined photoelectrically, 30 minutes after the administration of the substances, for a period of 30 minutes.

female NMRI mice [2] = test: Analgesic effect (D'Amour and Smith tail-flick method); conditions: for Analgesic effect ED 100%: intraperitoneal, mice, dose lengthening tail-flick reaction time by 100%, 30 minutes after administration; for Analgesic effect R.A. (relative activity): relative to Clozapin (1.00); for Analgesic effect (in words): discussion of Table 1
Protocol: The analgesic effect is determined by means of the D'Amour and Smith (1941) tail-flick method. In this, the substances are administered intraperitoneally to groups of 10 female NMRI mice. The pain reaction is triggered 30 minutes after administration. The reaction time, until the tail is flicked out of the way after exposure to a focused light beam, is measured.

[3] = test system: female Sprague-Dawley rats; test: Apomorphine-antagonistic effect (jaw movements, mandibulogram); conditions: for Apomorphine antagonism R.A. (relative activity): relative to Clozapin (1.00)
Protocol: 4. Apomorphine-antagonistic effect
Jaw motions are triggered in groups of 4-6 female Sprague-Dawley rats by subcutaneous administration of 1.5 mg of apomorphine/kg, and are recorded by means of implanted electrodes (Kubacki mandibulogram, 1978) .

female NMRI mice [4] = test: Anti-cholinergic effect (protection against death from Physostigmin)
Protocol: 3. Anti-cholinergic effect
A lethal dose (0.825 mg/kg) of Physostigmin is administered subcutaneously to groups of 10 female NMRI mice. The test substances are administered orally 30 minutes before administering the Physostigmin.

What does the source list for `N#CC=C1c2ccccc2N=C(N2CCCNCC2)c2ccccc21` (mixture of isomers) [32 cis-trans M, cis,trans-11-Cyanomethylene-6-homopiperazin-1-yl-morphanthridine.HCl.H2 O]?
Sedative effect R.A. (relative activity) (female NMRI mice [1]): > 0.22; Analgesic effect ED 100% (female NMRI mice [2]): 46.4 mg/kg; Analgesic effect R.A. (relative activity) (female NMRI mice [2]): 0.04; Apomorphine antagonism R.A. (relative activity) [3]: < 0.08

Which Analgesic effect ED 100% (female NMRI mice [2]) does the source give for `Cc1ccc2c(c1)N=C(N1CCN(C)CC1)c1ccccc1/C2=C/C#N` [13a trans-isomer, trans-3-methyl-11-cyanomethylene-6-(4-methylpiperazin-1-yl)-morphanthridine] here?
Its Analgesic effect ED 100% is 68.1 mg/kg.

What does the source list for `N#CC=C1c2ccccc2N=C(NCCN2CCCCC2)c2ccccc21` (mixture of isomers) [38 cis-trans M, cis,trans-11-Cyanomethylene-6-(2-piperidin-1-yl-ethylamino)-morphanthridine.1/2H2 O]?
Sedative effect R.A. (relative activity) (female NMRI mice [1]): 2.94; Analgesic effect ED 100% (female NMRI mice [2]): > 10 mg/kg; Apomorphine antagonism R.A. (relative activity) [3]: 0.17

How did the Analgesic effect ED 100% (female NMRI mice [2]) turn out when `CN1CCN(C2=Nc3ccccc3/C(=C\C#N)c3ccccc32)CC1` [1 trans-isomer, trans-11-cyanomethylene-6-(4-methyl-piperazin-1-yl)-morphanthridine] was run?
Its Analgesic effect ED 100% is > 21.5 mg/kg.

`CCN1CCN(C2=Nc3ccccc3C(=CC#N)c3ccccc32)CC1` (mixture of isomers) [31 cis-trans M, cis,trans-11-Cyanomethylene-6-(4-ethyl-piperazin-1-yl)-morphanthridine] was tested. Which Analgesic effect ED 100% (female NMRI mice [2]) did it give?
Its Analgesic effect ED 100% is > 10 mg/kg.

Which results are given for `C[N+]1([O-])CCN(C2=Nc3ccccc3/C(=C\C#N)c3ccccc32)CC1` [67 trans-isomer, t rans-11-cyanomethylene-6-(4-methyl-4-oxy-piperazin-1-yl)-morphanthridine]?
Sedative effect R.A. (relative activity) (female NMRI mice [1]): 0.04; Analgesic effect ED 100% (female NMRI mice [2]): > 100 mg/kg; Analgesic effect R.A. (relative activity) (female NMRI mice [2]): < 0.02; Apomorphine antagonism R.A. (relative activity) [3]: 0.32

Which “Sedative effect R.A. (relative activity)” value (female NMRI mice [1]) does the source give for `C[N+]1([O-])CCN(C2=Nc3ccccc3/C(=C/C#N)c3ccccc32)CC1` [67 cis-isomer, cis-11-cyanomethylene-6-(4-methyl-4-oxy-piperazin-1-yl)-morphanthridine] here?
The value was 0.26.

What about the Analgesic effect ED 100% (female NMRI mice [2]) of the same compound?
Its Analgesic effect ED 100% is > 46.4 mg/kg.

And the “Analgesic effect R.A. (relative activity)” value (female NMRI mice [2])?
Its value is < 0.04.

What about the “Apomorphine antagonism R.A. (relative activity)” value [3] of the same compound?
The value was < 0.08.

Which Analgesic effect ED 100% (female NMRI mice [2]) does the source give for `Cc1ccc2c(c1)C(=CC#N)c1ccccc1C(N1CCN(C)CC1)=N2` (mixture of isomers) [13b cis-trans M, cis,trans-2-Methyl-11-cyanomethylene-6-(4-methyl-piperazin-1-yl)-morphanthridine] here?
The Analgesic effect ED 100% was 10 mg/kg.

With `Cc1ccc2c(c1)N=C(N1CCN(C)CC1)c1ccccc1/C2=C\C#N` [13a cis-isomer, cis-3-methyl-11-cyanomethylene-6-(4-methyl-piperazin-1-yl)-morphanthridine] as the compound, how does the “Sedative effect (in words)” value (female NMRI mice [1]) read?
The value was “responsible for the strong sedative and strong analgesic effects”.

What about the “Analgesic effect (in words)” value (female NMRI mice [2]) of the same compound?
The value was “An analgesic effect is found; also recorded: responsible for the strong sedative and strong analgesic effects”.

And the Analgesic effect ED 100% (female NMRI mice [2])?
Its Analgesic effect ED 100% is 0.74 mg/kg.

How did the “Sedative effect (in words)” value (female NMRI mice [1]; listed as Example 1 (cis-trans mixture)) turn out when `CN1CCN(C2=Nc3ccccc3C(=CC#N)c3ccccc32)CC1` [1 cis-trans M, cis- and trans-11-Cyanomethylene-6-(4-methyl-piperazin-1-yl)-morphanthridine] was run?
The value was “relatively strong sedative effects; also recorded: more strongly sedative”.

And the “Analgesic effect (in words)” value (female NMRI mice [2])?
The value was “not analgesically active”.

And the Analgesic effect ED 100% (female NMRI mice [2])?
Its Analgesic effect ED 100% is 46.4 mg/kg.

What about the ED50 (female NMRI mice [4]; Mus musculus, read-out: Anti-cholinergic effect ED 50%, oral, 30 minutes before Physostigmin 0.825 mg/kg subcutaneous, mice, dose protecting 50% of the animals against death) of the same compound?
Its ED50 is 6.26 mg/kg.

And the “Apomorphine-antagonistic effect (in words)” value ([3]; discussion of Table 1)?
The value was “somewhat weaker than that of Clozapin”.

Which results are given for `CN1CCN(C2=Nc3ccccc3Cc3ccccc32)CC1` [Perlapin, reference compound]?
Sedative effect R.A. (relative activity) (female NMRI mice [1]): 2.31; Analgesic effect R.A. (relative activity) (female NMRI mice [2]): < 0.10; Apomorphine antagonism R.A. (relative activity) [3]: 0.37

For `CN1CCN(C2=Nc3cc(Cl)ccc3Nc3ccccc32)CC1` [Clozapin, reference compound], which “Sedative effect R.A. (relative activity)” value (female NMRI mice [1]) is on record?
Its value is 1.00.

And the Analgesic effect ED 100% (female NMRI mice [2])?
The Analgesic effect ED 100% was 2.08 mg/kg.

And the “Analgesic effect R.A. (relative activity)” value (female NMRI mice [2])?
The value was 1.00.

And the “Apomorphine antagonism R.A. (relative activity)” value [3]?
The value was 1.00.

Which Analgesic effect ED 100% (female NMRI mice [2]) does the source give for `CCN1CCN(C2=Nc3ccccc3/C(=C\C#N)c3ccccc32)CC1` [31 trans-isomer, trans-11-cyanomethylene-6-(4-ethyl-piperazin-1-yl)-morphanthridine] here?
Its Analgesic effect ED 100% is > 46.4 mg/kg.

`C[N+]1([O-])CCN(C2=Nc3ccccc3C(=CC#N)c3ccccc32)CC1` (mixture of isomers) [67 cis-trans M, cis,trans-11-Cyanomethylene-6-(4-methyl-4-oxypiperazin-1-yl)-morphanthridine.2H2 O] was tested. Which “Sedative effect R.A. (relative activity)” value (female NMRI mice [1]) did it give?
Its value is 0.33.

And the Analgesic effect ED 100% (female NMRI mice [2])?
Its Analgesic effect ED 100% is > 46.4 mg/kg.

What about the “Analgesic effect R.A. (relative activity)” value (female NMRI mice [2]) of the same compound?
The value was < 0.04.

What about the “Apomorphine antagonism R.A. (relative activity)” value [3] of the same compound?
Its value is 0.09.

What does the source list for `CN1CCN(C2=Nc3ccccc3/C(=C/C#N)c3ccccc32)CC1` [1 cis-isomer, cis-11-cyanomethylene-6-(4-methylpiperazin-1-yl)-morphanthridine]?
Analgesic effect ED 100% (female NMRI mice [2]): 31.6 mg/kg; Anti-cholinergic effect (in words) (female NMRI mice [4]; discussion of Table 1, Physostigmin antagonism): approximately comparable anti-cholinergic effect

For `Cc1ccc2c(c1)N=C(N1CCN(C)CC1)c1ccccc1C2=CC#N` (mixture of isomers) [13a cis-trans M, cis,trans-3-Methyl-11-cyanomethylene-6-(4-methylpiperazin-1-yl)-morphanthridine], which Analgesic effect ED 100% (female NMRI mice [2]) is on record?
The Analgesic effect ED 100% was 5.17 mg/kg.
